Measured values from PMC6364417, “Kinase inhibitor library screening identifies synergistic drug combinations effective in sensitive and resistant melanoma cells” (Journal of Experimental & Clinical Cancer Research : CR, 2019).
Read-outs that look alike come from different tables or passages of the source. One block for each molecule: values may come before it.

Tests used:
501Mel cells (parental) [1] = assay: Dose-response curves and IC50, PrestoBlue cell viability, 72 h; conditions: read-out: Half-maximal inhibitory concentration (IC50)
[2] = tested on: 501Mel-GP cells (Dabrafenib-resistant); assay: as above; conditions: read-out: Half-maximal inhibitory concentration (IC50)
[3] = tested on: IGR37-GP cells (Dabrafenib-resistant); assay: as above; conditions: read-out: Half-maximal inhibitory concentration (IC50)
IGR37 cells (parental) [4] = assay: as above; conditions: read-out: Half-maximal inhibitory concentration (IC50)
[5] = tested on: IGR37-XP cells (Vemurafenib-resistant); assay: as above; conditions: read-out: Half-maximal inhibitory concentration (IC50)
[6] = tested on: IGR37-GP cells (Dabrafenib-resistant); assay: Kinase inhibitor library screening, PrestoBlue cell viability, 1 or 10 μM, 72 h; conditions: IGR37 GP, in %
[7] = tested on: 501Mel-XP cells (Vemurafenib-resistant); assay: as above; conditions: 501Mel XP, in %
IGR37 cells (parental) [8] = assay: as above; conditions: IGR37 Parental, in %
[9] = tested on: 501Mel-GP cells (Dabrafenib-resistant); assay: as above; conditions: 501Mel GP, in %
[10] = tested on: IGR37-XP cells (Vemurafenib-resistant); assay: as above; conditions: IGR37 XP, in %
A375 cells (parental) [11] = assay: as above; conditions: A375 Parental, in %
[12] = tested on: A375-GP cells (Dabrafenib-resistant); assay: as above; conditions: A375 GP, in %
[13] = tested on: A375-XP cells (Vemurafenib-resistant); assay: as above; conditions: A375 XP, in %
501Mel cells (parental) [14] = assay: as above; conditions: 501Mel Parental, in %
Outline: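 Values are % viability versus untreated wells, measured by PrestoBlue after a 72 h drug exposure. Screens covered the parental line plus sublines rendered resistant to Vemurafenib or Dabrafenib, each analysed in at least duplicate.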

[15] = tested on: 501Mel-XP cells (Vemurafenib-resistant); assay: Dose-response curves and IC50, PrestoBlue cell viability, 72 h; conditions: read-out: Half-maximal inhibitory concentration (IC50)
[16] = tested on: A375-GP cells (Dabrafenib-resistant); assay: as above; type: cell-based, human; conditions: n.e. = did not suppress growth below 50% in the tested concentration range; for IC50: read-out: Half-maximal inhibitory concentration value (IC50), Mean
[17] = tested on: A375-XP cells (Vemurafenib-resistant); assay: as above; type: cell-based, human; conditions: n.e. = did not suppress growth below 50% in the tested concentration range; for IC50: read-out: Half-maximal inhibitory concentration value (IC50), Mean
A375 cells (parental) [18] = assay: as above; type: cell-based, human; conditions: for IC50: read-out: Half-maximal inhibitory concentration value (IC50), Mean
A375 cells = assay: Synergy determination with the Chou-Talalay method (CompuSyn), cell viability 72 h; type: cell-based, human; conditions: 72 h cell viability, Chou-Talalay / Synergyfinder
Experimental: The Chou-Talalay method to determine possible synergistic effects of selected kinase inhibitor combinations was used as described in [19]. […] Cells were treated with either single inhibitors or combinations thereof at indicated amounts in technical triplicates. The amounts were pre-determined from each inhibitor’s IC50 value and inhibitors were assayed in a defined dilution series and at constant ratio when combined. […] Combination Index (CI) values showing either synergy (< 1) or antagonism (> 1) were calculated with the CompuSyn software (ComboSyn, Inc).

[19] = n.e. = did not suppress growth below 50% in the tested concentration range
[20] = Homo sapiens, A-375, n.e. = did not suppress growth below 50% in the tested concentration range

- IC50 [16]: 1.91 µM
- IC50 [17]: 3.2 µM
Structure (SMILES): Cc1ccc(C(=O)Nc2cccc(C(F)(F)F)c2)cc1Nc1nc(-c2cccnc2)nc2c1cnn2C [NVP-BHG712, reference compound]
- IC50 (501Mel cells (parental) [1]; 501Mel parental, 72 h cell viability): 4.48 µM
- IC50 ([2]; 501Mel-GP (Dabrafenib-resistant), 72 h cell viability): 4.88 µM
- IC50 ([3]; IGR37-GP (Dabrafenib-resistant), 72 h cell viability): 7.02 µM
- IC50 (IGR37 cells (parental) [4]; IGR37 parental, 72 h cell viability): 5.78 µM
- IC50 ([5]; IGR37-XP (Vemurafenib-resistant), 72 h cell viability): 5.95 µM
- cell viability (kinase inhibitor library screening) ([6]; 1μΜ): 97.4
- cell viability (kinase inhibitor library screening) ([6]; 10μΜ): 51.2
- cell viability (kinase inhibitor library screening) ([7]; 1μΜ): 121.0
- cell viability (kinase inhibitor library screening) ([7]; 10μΜ): 2.2
- cell viability (kinase inhibitor library screening) (IGR37 cells (parental) [8]; 1μΜ): 107.5
- cell viability (kinase inhibitor library screening) (IGR37 cells (parental) [8]; 10μΜ): 83.5
- cell viability (kinase inhibitor library screening) ([9]; 1μΜ): 107.1
- cell viability (kinase inhibitor library screening) ([9]; 10μΜ): 25.6
- cell viability (kinase inhibitor library screening) ([10]; 1μΜ): 103.3
- cell viability (kinase inhibitor library screening) ([10]; 10μΜ): 17.6
- cell viability (kinase inhibitor library screening) (A375 cells (parental) [11]; 1μΜ): 103.3
- cell viability (kinase inhibitor library screening) (A375 cells (parental) [11]; 10μΜ): 63.1
- cell viability (kinase inhibitor library screening) ([12]; 1μΜ): 80.6
- cell viability (kinase inhibitor library screening) ([12]; 10μΜ): 37.1
- cell viability (kinase inhibitor library screening) ([13]; 1μΜ): 84.7
- cell viability (kinase inhibitor library screening) ([13]; 10μΜ): 29.1
- cell viability (kinase inhibitor library screening) (501Mel cells (parental) [14]; 1μΜ): 103.2
- cell viability (kinase inhibitor library screening) (501Mel cells (parental) [14]; 10μΜ): 27.8
- IC50 ([15]; 501Mel-XP (Vemurafenib-resistant), 72 h cell viability): 3.82 µM
- IC50 (A375 cells (parental) [18]; [19]): 4.42 µM

Structure (SMILES): Cc1ccc(C(=O)Nc2ccc(CN3CCN(C)CC3)c(C(F)(F)F)c2)cc1C#Cc1cnc2cccnn12 [Ponatinib]
- synergistic effects with the BRAF inhibitors Vemurafenib and/or Dabrafenib (in words) (A375 cells): did not act synergistically
- IC50 (501Mel cells (parental) [1]; Homo sapiens, 72 h): 1.17 µM
- IC50 ([2]; Homo sapiens, 72 h): 1.4 µM
- IC50 ([3]; Homo sapiens, 72 h): 1.35 µM
- IC50 (IGR37 cells (parental) [4]; Homo sapiens, IGR-37, 72 h): 1.07 µM
- IC50 ([5]; Homo sapiens, 72 h): 1.43 µM
- IC50 ([15]; Homo sapiens, 72 h): 1.34 µM
- IC50 ([16]; Homo sapiens): 0.226 µM
- IC50 ([17]; Homo sapiens): 0.177 µM
- IC50 (A375 cells (parental) [18]; [20]): 0.628 µM

- IC50 ([16]; Homo sapiens): 0.05 µM
- IC50 ([17]; Homo sapiens): 0.059 µM
Structure (SMILES): COc1cc(OC)c(/C=C/S(=O)(=O)Cc2ccc(OC)c(NCC(=O)O)c2)c(OC)c1 [Rigosertib]
- synergistic effects with the BRAF inhibitors Vemurafenib and/or Dabrafenib (in words) (A375 cells): did not act synergistically
- IC50 (501Mel cells (parental) [1]; Homo sapiens, 72 h): 0.08 µM
- IC50 ([2]; Homo sapiens, 72 h): 0.07 µM
- IC50 ([3]; Homo sapiens, 72 h): 0.09 µM
- IC50 (IGR37 cells (parental) [4]; Homo sapiens, IGR-37, 72 h): 0.103 µM
- IC50 ([5]; Homo sapiens, 72 h): 0.121 µM
- IC50 ([15]; Homo sapiens, 72 h): 0.063 µM
- IC50 (A375 cells (parental) [18]; [20]): 0.064 µM

- IC50 ([16]; Homo sapiens): 2.5 µM
- IC50 ([17]; Homo sapiens): 4.54 µM
Structure (SMILES): CNC(=O)c1cc(Oc2ccc(NC(=O)Nc3ccc(Cl)c(C(F)(F)F)c3)cc2)ccn1 [Sorafenib]
- IC50 (501Mel cells (parental) [1]; Homo sapiens, 72 h): 7.04 µM
- IC50 ([2]; Homo sapiens, 72 h): 6.94 µM
- IC50 ([3]; Homo sapiens, 72 h): 9.52 µM
- IC50 (IGR37 cells (parental) [4]; Homo sapiens, IGR-37, 72 h): 7.31 µM
- IC50 ([5]; Homo sapiens, 72 h): 10 µM
- IC50 ([15]; Homo sapiens, 72 h): 5.43 µM
- IC50 (A375 cells (parental) [18]; [20]): 5.11 µM

- Half-maximal inhibitory concentration value (IC50), Mean [16]: n.e.
- Half-maximal inhibitory concentration value (IC50), Mean [17]: n.e.
Structure (SMILES): CO[C@H]1C[C@@H]2CC[C@@H](C)[C@@](O)(O2)C(=O)C(=O)N2CCCC[C@H]2C(=O)O[C@H]([C@H](C)C[C@@H]2CC[C@@H](OC(=O)C(C)(CO)CO)[C@H](OC)C2)CC(=O)[C@H](C)/C=C(\C)[C@@H](O)[C@@H](OC)C(=O)[C@H](C)C[C@H](C)/C=C/C=C/C=C/1C [Temsirolimus]
- IC50 ([3]; Homo sapiens, 72 h): 9.45 µM
- IC50 ([5]; Homo sapiens, 72 h): 6.93 µM
- Half-maximal inhibitory concentration value (IC50), Mean (A375 cells (parental) [18]; [19]): n.e.

- IC50 ([16]; Homo sapiens): 5.34 µM
- IC50 ([17]; Homo sapiens): 5.21 µM
Structure (SMILES): O=C(O)c1ccc2c(c1)nc(Nc1cccc(Cl)c1)c1ccncc12 [cx-4945]
- IC50 (501Mel cells (parental) [1]; Homo sapiens, 72 h): 7.17 µM
- IC50 ([2]; Homo sapiens, 72 h): 4.94 µM
- IC50 ([3]; Homo sapiens, 72 h): 9.09 µM
- IC50 (IGR37 cells (parental) [4]; Homo sapiens, IGR-37, 72 h): 6.66 µM
- IC50 ([5]; Homo sapiens, 72 h): 6.1 µM
- IC50 ([15]; Homo sapiens, 72 h): 4.65 µM
- IC50 (A375 cells (parental) [18]; [20]): 5.62 µM
